Ki and inhibition data for 14 compounds are collected here from ChEMBL document CHEMBL1133964, “Synthesis and biological data of 4-amino-1-(2-chloro-2-phenylethyl)-1H-pyrazolo[3,4-b]pyridine-5-carboxylic acid ethyl esters, a new series of A1-adenosine receptor (A1AR) ligands” (Bioorg Med Chem Lett, 2001).

Usually Ki stands for a measure of affinity in units of concentration, obtained from inhibition or displacement. A word on the inhibition: it is the percentage by which the read-out fell short of the control. Low values mean little suppression, high ones strong suppression.

Structures are written as SMILES.

One test deals with T1, Adenosine receptor A1 (Bos taurus, UniProt P28190).
T1 sequence (P28190 whole entry): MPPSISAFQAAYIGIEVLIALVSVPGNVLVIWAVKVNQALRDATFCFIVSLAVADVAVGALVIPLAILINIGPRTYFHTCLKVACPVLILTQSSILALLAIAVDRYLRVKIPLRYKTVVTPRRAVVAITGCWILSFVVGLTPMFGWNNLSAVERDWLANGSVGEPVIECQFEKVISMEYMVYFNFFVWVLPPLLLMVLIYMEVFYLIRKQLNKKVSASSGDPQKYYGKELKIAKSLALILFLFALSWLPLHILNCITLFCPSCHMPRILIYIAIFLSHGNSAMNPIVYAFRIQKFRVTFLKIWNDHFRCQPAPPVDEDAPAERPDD
The experiment in a line: Displacement of [3H]CHA from Adenosine A1 receptor in bovine cortical membrane expressed as Ki. The test is classed as cell membranes. (Displacement assays read how much labelled ligand stays bound in the presence of the test substance.)

In test [1] the test system is Adenosine receptor A2a (Bos taurus). The test can be described thus: Percent inhibition of [3H]CGS-21680 binding to A2A adenosine receptor of bovine striatal membrane at 10 uM.
For test [2], the target named is T2, Adenosine receptor A1 (Bos taurus) (UniProt P28190).
T2 sequence (whole entry): T1 sequence (P28190 whole entry)
The test can be described thus: Percent inhibition of [3H]CHA binding at Adenosine A1 receptor in bovine cortical membrane at 10 uM. The test is classed as cell membranes.

Test [3] deals with Adenosine receptor A2a (Bos taurus). The test can be described thus: Displacement of [3H]CGS-21680 binding at A2A adenosine receptor in bovine striatal membrane.

For the compound `CCOC(=O)c1cnc2c(cnn2CC(Cl)c2ccccc2)c1NCCc1ccccc1` (stereo not drawn), on Adenosine receptor A1, the Ki was 50 nM.

`CCCNc1c(C(=O)OCC)cnc2c1cnn2CC(Cl)c1ccccc1` (stereo not drawn) showed a Ki at Adenosine receptor A1 of 100 nM.

In the case of `CCOC(=O)c1cnc2c(cnn2CC(Cl)c2ccccc2)c1NC1CC1` (stereo not drawn), the inhibition in test [1] stood at 10%. The same compound came in with a Ki at Adenosine receptor A1 of 112 nM.

Turning to `CCOC(=O)c1cnc2c(cnn2CC(Cl)c2ccccc2)c1N1CCCC1` (stereo not drawn), the Ki on Adenosine receptor A1 was 98.2 nM.

Compound `CCOC(=O)c1cnc2c(cnn2CC(Cl)c2ccccc2)c1NC(C)(C)C` (stereo not drawn) yielded a Ki on Adenosine receptor A1 of 4800 nM.

`CCOC(=O)c1cnc2c(cnn2CC(Cl)c2ccccc2)c1Nc1ccccc1` (stereo not drawn) displayed an inhibition in test [1] of 11%. At Adenosine receptor A1, this compound displayed a Ki of 348 nM.

As for `CCOC(=O)c1cnc2c(cnn2CC(Cl)c2ccccc2)c1N1CCCCCC1` (stereo not drawn), the inhibition in test [1] worked out at 22%; in test [2], 35%.

In turn, `CCOC(=O)c1cnc2c(cnn2CC(Cl)c2ccccc2)c1N1CCN(C)CC1` (stereo not drawn) showed a Ki in test [3] of 2140 nM. In addition, the inhibition in test [2] was found to be 22%.

With `CCOC(=O)c1cnc2c(cnn2CC(Cl)c2ccccc2)c1N1CCCCC1` (stereo not drawn), the figures for the inhibition in test [1] and in test [2] were 23% and 41%, respectively.

`CCOCCNc1c(C(=O)OCC)cnc2c1cnn2CC(Cl)c1ccccc1` (stereo not drawn) displayed a Ki on Adenosine receptor A1 of 151 nM.

The compound `CCCCNc1c(C(=O)OCC)cnc2c1cnn2CC(Cl)c1ccccc1` (stereo not drawn) registered an inhibition in test [1] of 3%. The same compound came in with a Ki at Adenosine receptor A1 of 4100 nM.

With `CCOC(=O)c1cnc2c(cnn2CC(Cl)c2ccccc2)c1N1CCOCC1` (stereo not drawn), the inhibition in test [1] amounted to 0%. For the same compound, the affinity at Adenosine receptor A1 corresponds to a Ki of 470 nM.

Consider `CCOC(=O)c1cnc2c(cnn2CC(Cl)c2ccccc2)c1N1CCNCC1` (stereo not drawn), for which the results for the inhibition in test [1] and in test [2] were 6% and 0%, respectively.

Turning to `CCOC(=O)c1cnc2c(cnn2CC(Cl)c2ccccc2)c1NCc1ccccc1` (stereo not drawn), in test [1], the inhibition was found to be 0%. On Adenosine receptor A1, this compound came in with a Ki of 139 nM.
